Laboratory results: ChEMBL document CHEMBL1201862, “PubChem BioAssay data set” (2004)
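Interpolation was linear, between the two tested concentrations surrounding the appropriate level; five concentrations were tested over 48 hours in 96-well plates. At the GI50, growth is halved.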 Activity calls are given as the source filed them. No stated cut-off is given here; in the data, active = GI50 up to about 1.1 µM and inactive = higher.

How the values were obtained:
Assay in all cases: NCI anticancer screen, dose series, 48 h
786-0 = system: 786-0
A498 = system: A498
A549 = system: A549
ACHN = system: ACHN
BT-549 = system: BT-549
CAKI-1 = system: CAKI-1
CCRF-CEM = system: CCRF-CEM
COLO 205 = system: COLO 205
DU-145 = system: DU-145
EKVX = system: EKVX
HCC 2998 = system: HCC 2998
HCT-116 = system: HCT-116
HCT-15 = system: HCT-15
HOP-62 = system: HOP-62
HOP-92 = system: HOP-92
HT-29 = system: HT-29
Hs-578T = system: Hs-578T
IGROV-1 = system: IGROV-1
K562 = system: K562
KM12 = system: KM12
LOX IMVI = system: LOX IMVI
M14 = system: M14
MCF7 = system: MCF7
MDA-MB-231 = system: MDA-MB-231
MDA-MB-435 = system: MDA-MB-435
MDA-N = system: MDA-N
MOLT-4 = system: MOLT-4
Malme-3M = system: Malme-3M
NCI-H226 = system: NCI-H226
NCI-H23 = system: NCI-H23
NCI-H460 = system: NCI-H460
NCI-H522 = system: NCI-H522
NCI/ADR-RES = system: NCI/ADR-RES
OVCAR-3 = system: OVCAR-3
OVCAR-4 = system: OVCAR-4
OVCAR-5 = system: OVCAR-5
OVCAR-8 = system: OVCAR-8
PC-3 = system: PC-3
RPMI-8226 = system: RPMI-8226
RXF 393 = system: RXF 393
SF-268 = system: SF-268
SF-295 = system: SF-295
SF-539 = system: SF-539
SK-MEL-28 = system: SK-MEL-28
SK-MEL-2 = system: SK-MEL-2
SK-MEL-5 = system: SK-MEL-5
SK-OV-3 = system: SK-OV-3
SN12C = system: SN12C
SNB-19 = system: SNB-19
SNB-75 = system: SNB-75
SR = system: SR
SW-620 = system: SW-620
T47D = system: T47D
TK-10 = system: TK-10
U-251 = system: U-251
UACC-257 = system: UACC-257
UACC-62 = system: UACC-62
UO-31 = system: UO-31

For `N#Cc1cnc(N)nc1NCC1(CO)CC(CCc2ccccc2)C1` (stereo not drawn), the GI50 (786-0) was > 85.5 µM (inactive), the GI50 (A498) was 29 µM (inactive) and the GI50 (A549) was 14.3 µM (inactive). The GI50 (ACHN) was > 33.5 µM (inactive), the GI50 (BT-549) was > 100 µM (inactive) and the GI50 (CAKI-1) was > 100 µM (inactive). The GI50 (CCRF-CEM) was > 100 µM (inactive), the GI50 (COLO 205) was > 100 µM (inactive) and the GI50 (DU-145) was > 100 µM (inactive). The GI50 (EKVX) was 35.2 µM (inactive), the GI50 (HCC 2998) was > 100 µM (inactive) and the GI50 (HCT-116) was 12 µM (inactive). For the same molecule, the GI50 (HCT-15) was > 100 µM, the GI50 (HOP-62) was 58.1 µM (inactive) and the GI50 (HOP-92) was 19.7 µM (inactive). The GI50 (HT-29) was > 100 µM (inactive), the GI50 (Hs-578T) was > 70.8 µM (inactive) and the GI50 (IGROV-1) was 55 µM (inactive). The GI50 (K562) was 2.51 µM (inactive), the GI50 (KM12) was > 85.5 µM (inactive) and the GI50 (LOX IMVI) was 5.26 µM (inactive). The GI50 (M14) was > 100 µM (inactive), the GI50 (MCF7) was 49.1 µM (inactive) and the GI50 (MDA-MB-231) was 56.2 µM (inactive). For the same molecule, the GI50 (MDA-MB-435) was 25.2 µM (inactive), the GI50 (MDA-N) was 29.9 µM (inactive) and the GI50 (MOLT-4) was 3.15 µM (inactive). For the same molecule, the GI50 (Malme-3M) was > 100 µM (inactive), the GI50 (NCI-H226) was > 100 µM (inactive) and the GI50 (NCI-H23) was 63.4 µM (inactive). For the same molecule, the GI50 (NCI-H460) was > 100 µM (inactive), the GI50 (NCI-H522) was > 55.2 µM (inactive) and the GI50 (NCI/ADR-RES) was 9.95 µM (inactive). For the same molecule, the GI50 (OVCAR-3) was > 90.4 µM (inactive), the GI50 (OVCAR-4) was > 100 µM (inactive) and the GI50 (OVCAR-5) was > 100 µM (inactive). The GI50 (OVCAR-8) was 47.3 µM (inactive), the GI50 (PC-3) was > 91.2 µM (inactive) and the GI50 (RPMI-8226) was > 100 µM (inactive). For the same molecule, the GI50 (RXF 393) was 49 µM (inactive), the GI50 (SF-268) was > 55.6 µM (inactive) and the GI50 (SF-295) was 18.5 µM (inactive). For the same molecule, the GI50 (SF-539) was > 100 µM (inactive), the GI50 (SK-MEL-28) was > 100 µM (inactive) and the GI50 (SK-MEL-2) was > 100 µM (inactive). For the same molecule, the GI50 (SK-MEL-5) was 1.72 µM (inactive), the GI50 (SK-OV-3) was 27.1 µM (inactive) and the GI50 (SN12C) was > 100 µM (inactive). For the same molecule, the GI50 (SNB-19) was 55.3 µM (inactive), the GI50 (SNB-75) was 20.8 µM (inactive) and the GI50 (SR) was 20.1 µM (inactive). The GI50 (SW-620) was > 100 µM (inactive), the GI50 (T47D) was 0.301 µM (active) and the GI50 (TK-10) was > 61.5 µM (inactive). The GI50 (U-251) was > 59.2 µM (inactive), the GI50 (UACC-257) was 42.1 µM (inactive) and the GI50 (UACC-62) was > 100 µM (inactive). The GI50 (UO-31) was 20.3 µM (inactive).
